Assay results taken from patent US20020155117A1, “METHOD FOR DETECTING ORGAN ALLOGRAFT REJECTION AND USES THEREOF” (priority 1996, published 2002).
Ends that are not written are not given here.

Assays:
Assay type in all cases: cell-based, human
TCL-PR = experiment: Proliferative response of TCL-PR to DR4 peptide
Source text: The identification of the core epitope of the DR4/69-88 peptide has been accomplished. […] The peptide KRAAVDTYCRHNYG carries the expected anchor residues required by the peptide binding motif of the DTRβ1*1101 restriction molecule (i+7) as well as the TCR contact residues involved in the stimulation of TCL-PR.
The objective of these studies is to establish whether high doses of dominant peptide are tolerogenic. To increase resistance against enzymatic degradation D-Lysine is placed at the N-terminus and the C-terminus is amidated. We have established that the optimal dose of the dominant peptide (4/71-84) required for inducing maximal proliferation of TCR-PR is 5 μg/ml or approximately 5×10^−7M. Increasing concentration of peptide 4/71-84 (ranging from 10^−8 to 10^−4M) may be used to determine the dose required to reduce proliferation to the background values observed in cultures with APCs and no peptide. The viability of the cells will be assayed and physiological studies will be performed to determine whether the lack of proliferation results from the induction of enery of apoptosis.

[1] = system: PBMC from a responder (LZ), expressing HLA-DR β1*1101/1201; experiment: In vitro immunization of PBMC from responder LZ with DR1 peptides (blastogenesis with autologous APCs); details: peptide 5 μg/ml
Experimental: Development of Allo-peptide Specific T Cell Lines for Epitope Mapping. PBMCs (at 10^6/ml) from a healthy person ([…]) with HLA-DRβ1*1101/1201 genotype were primed in individual cultures (Liu et al., 1992) with each or the following seven DR1 peptides(5 μg/ml) spanning the first domain of the Drβ1*0101 chain:
(§1) T cells were grown in 24 well plates (Nunc, Inc., Naperville, Ill.) in RPM1 1640 medium supplemented with 10% human AB serum, […] L-glutamine, and 50 μg/ml gentamicin (Gibco, Grand Island, N.Y.). On day 10, rIL-2 was added at 5 μ/ml. Fourteen days after priming, T cells were collected, washed and restimulated at 10^6/ml with antigen, in culture medium containing rIL-2 (20 u/ml) and irradiated (3000 rad) autologous PBMCs (2×10^6/ml). Following three stimulations, two TCLs, named LZ-anti-pp1-20 and LZ-anti-pp21-42, were obtained.
To monitor indirect recognition in allograft recipients, a determination was made as to whether T cell recognize one or more peptides resulting from the processing of an allogeneic MHC molecule by responder APCs. For this, in vitro PBMC were immunized from a responder (LZ), expressing HLA-DR β1*1101/1201, with seven partially overlapping peptides corresponding to the first domain of the Drβ1*0101 molecule. […] The resulting T cell lines were tested for their ability to recognize native rDR1 molecule at various protein concentrations.

TCL LZ-anti-pp 21-42 = experiment: Proliferation assay of TCL LZ-anti-pp 21-42; set-up: stimulation of TCL anti-pp 21-42 by overlapping 14-mer peptides: dose or concentration left out as unconfirmed
Experimental: (§2) FIGS. 1A and 1B. Reactivity of TCLs to the immunizing peptides and to r DR1 proteins. The TCL LZ-anti-pp 1-20 […] and TCL LZ-anti-pp 21-42 […] were tested for reactivity to various concentrations of rDR1 protein and pp 1-20 pr pp 21-42 using 2×10^4 responding cells and 5×10^4 irradiated autologous APCs per well. Cultures were labeled after 48 hours and harvested 18 hours later. Results are expressed as mean cpm of triplicate cultures. The standard deviation of measure was less than 10%.
(§3) FIGS. 2A and 2B. HLA-DR restriction of peptide recognition by TCLs. The TCL LZ-anti-pp 1-20 (FIG. 2A) and TCL LZ-anti-pp 21-42 (FIG. 2B) were stimulated with […] peptide (pp 1-20 for LZ-anti-pp 1-20 and pp 21-42 for LZ-anti-pp 21-42) in the presence of autologous and allogeneic APCs sharing with the responder one or no DR antigen. Assays were done as described in the description of FIGS. 1A and 1B.
FIG. 3. Determination of the core epitope of the dominant determinant of DR1 molecule. TCL LZ-anti-pp 21-42 was stimulated in individual cultures with nine overlapping 14-mer peptides ([…]) moving along residues 21-42 in single residue steps. The reactions were set up as described in the description of FIGS. 1A and 1B.
FIG. 4. Suppression of TCL reactivity by high concentrations of antigen. The proliferative response of TCL LZ-anti-pp 21-42 was tested as described in the description of FIGS. 1A and 1B using different concentrations of pp 22-35. The response was abolished at a concentration […].
as §1
(§4) Responding T cells (2×10^4/well) were cultured with irradiated APCs of responder or stimulator origin (5×10^4/well) in round bottom microtiter plates (Nunc Inc., Naperville, Ill.). Antigens were added to the cultures at the concentrations indicated. [^3H] thymidine (1 μCi/well) was added after 48 hours, and the cultures were harvested 18 hours later. [^3H] thymidine incorporation was measured in an LK Betaplate liquid scintillation counter (Wallace, Inc., Gaithersburg, Md.). Mean cpm in triplicate cultures and standard deviation of the mean were calculated.
The immune response of mature T cells can paradoxically be suppressed by high doses of antigen (Suzuki et al., 1988; and Critchfield et al, 1994). The possibility of suppressing indirect allorecognition was explored by testing the reactivity of TCL LZ-anti-pp 21-42 to increasing concentrations of pp 22-35 in the presence of autologous APC. The reactivity of the line started to decline when the concentration of the peptide was increased above 3 μM (FIG. 4).
(§5) T cells cultured with 27 μM of pp 22-35 lost viability (>90% Preputium iodide positive) within 72 hours, while T cells grown with high concentration of the irrelevant peptide alone were unaffected

[2] = system: T cells infiltrating the graft; experiment: Limiting dilution analysis of Th frequency among lymphocytes infiltrating the graft, Example 1; details: patient three, + self PBMC
Source text: Biopsy tissue was washed twice with medium supplemented with 5 u/ml rIL-2. Cell growth was checked everyday. The medium was changed twice a week. T cells infiltrating the graft were further expanded in medium with rIL-2 for 7-14 days. When the cell number reached 1×10^6, they were harvested and plated at 400, 200 and 100 cells per well in the presence of autologous PBMC (5×10^4/per well) in 24 replicate cultures. Cultures were maintained and assayed for reactivity as described above. The precursor frequency of Th cells recognizing pp 22-35 and donor spleen cells was analyzed by Poisson statistics (Liu et al., 1992; and Zhang et al., 1994).

[3] = system: IL-2 expanded PBMCs of DR11 positive heart allograft recipients; experiment: Limiting dilution analysis (LDA) of Th frequency in the periphery, Example 1; details: for T helper cell frequency, circulation: + self PBMC
Experimental: FIG. 6. Suppression of in vivo activated T cells by high doses of antigen. PBMCs obtained from patient […] on day 55 were expanded in IL-2 for 14 days and then tested in LDA (limiting dilution analysis) for reactivity to pp 22-35 at concentrations of […] in the presence of autologous APCs.
The LDA study of Th frequency in the periphery was performed using the method described by Zhang et al. (Zhang et al., 1994) with some modifications. PBMCs were plated at 2×10^4, 1×10^4 and 5×10^3 cells per well (24 wells for each concentration) in 0.1 ml medium containing 40 U/ml of rIL-2. On day 7, 0.1 ml fresh medium with rIL-2 was added to each well. After 14 days, each culture was split into 3 aliquots: one was cultured with autologous (patient) irradiated PBMC (5×10^4/well), the second with autologous PBMC plus pp 22-35, and the third with donor spleen cells (5×10^4/well). The cultures were pulsed with [^3H] thymidine ([…]) after 48 hours and harvested 18 hours later.
To establish whether the reactivity of in vivo activated T cells to peptide 22-35 can be suppressed by high concentrations of antigen the following experiment was performed: PBMC from […] were cultured for 14 days at different cell concentrations in medium with IL-2. Cultures were then tested in the presence of autologous APCs for reactivity to pp 22-35 at concentrations of 1 μM and 15 μM. At 1 μM of antigen there were 8×10^−6 reactive T cells while at 15 μM there was no reactivity (FIG. 6).

[4] = system: TCL LZ-anti-pp 21-42 T cells; experiment: Viability of T cells cultured with high peptide concentration (Preputium iodide); details: high concentration of the irrelevant peptide alone
Experimental: as §5

TCL LZ-anti-pp 1-20 = experiment: Proliferation assay of TCL LZ-anti-pp 1-20
Experimental: as §2
as §3, with “1B. […]” for “1B.”
as §4, with “Antigens were added to the cultures at the concentrations indicated. [^3H] thymidine (1 μCi/well) was added after 48 hours, and the cultures were harvested 18 hours later.” left out

Substance: K R A A V D T Y C R H N Y G (KRAAVDTYCRHNYG) [4/71-84]
- optimal dose required for inducing maximal proliferation of TCR-PR (TCL-PR): 5 μg/ml and approximately 5×10^−7 M
- potency in stimulating the proliferative response of TCL-PR (core epitope of DR4/69-88) (TCL-PR): most potent

Substance: TERVRLLERCIYNQEESVREDS (TERVRLLERCIYNQEESVREDS) [pp 21-42, residues 21-42 of Drβ1*0101 chain]
- blastogenesis after in vitro immunization of PBMC [1]: elicited blastogenesis
- reactivity of TCL LZ-anti-pp 21-42 (TCL LZ-anti-pp 21-42; autologous APCs, various concentrations, FIG. 1B): reacted vigorously
- HLA-DR restriction of peptide recognition by TCL anti-pp 21-42 (TCL LZ-anti-pp 21-42; autologous and allogeneic APCs, FIG. 2B): only when presented by APCs carrying the Drβ1*1101 allele

Substance: ERVRLLERCIYNQE [pp 22-35, ERVRLLERCIYNQE]
- T helper cell frequency, graft ([2]; 55 d biopsy): 4.3×10^−4
- T helper cell frequency, graft ([2]; 55 d biopsy, listed as pp22-35): 4.3 × 10^−4
- T helper cell frequency, graft ([2]; 82 d biopsy): 3.3×10^−4
- T helper cell frequency, graft ([2]; 82 d biopsy, listed as pp22-35): 3.3 × 10^−4
- reactive T cells in LDA at low antigen concentration ([3]; patient PBMC (day 55), 1 μM of antigen, autologous APCs, FIG. 6): 8×10^−6
- reactive T cells in LDA at high antigen concentration ([3]; patient PBMC (day 55), 15 μM of antigen, autologous APCs, FIG. 6): no reactivity
- T helper cell frequency, circulation ([3]; patient one, 1 Mo after transplantation): 0
- T helper cell frequency, circulation ([3]; patient one, 12 Mo after transplantation (chronic rejection)): 6×10^−6
- T helper cell frequency, circulation ([3]; patient one, 12 Mo after transplantation (chronic rejection), listed as pp22-35): 6.0 × 10^−6
- T helper cell frequency, circulation ([3]; patient three, 27 d after transplantation): 0
- T helper cell frequency, circulation ([3]; patient three, 41 d after transplantation): 7.4×10^−6
- T helper cell frequency, circulation ([3]; patient three, 41 d after transplantation, listed as pp22-35): 7.4 × 10^−6
- T helper cell frequency, circulation ([3]; patient three, 55 d after transplantation (acute rejection), listed as pp22-35): 8.0 × 10^−6
- T helper cell frequency, circulation ([3]; patient three, 55 d after transplantation (acute rejection), listed as pp-22-35): 8×10^−6
- T helper cell frequency, circulation ([3]; patient three, 82 d after transplantation (acute rejection), listed as pp22-35): 6.5 × 10^−6
- T helper cell frequency, circulation ([3]; patient three, 82 d after transplantation (acute rejection), listed as pp-22-35): 6.5e-06
- T helper cell frequency, circulation ([3]; patient two, 12 Mo after transplantation): failed to react
- T helper cell frequency, circulation ([3]; patient two, 12 Mo after transplantation, listed as pp22-35): 0
- peptide concentration at which the proliferative response was abolished (TCL LZ-anti-pp 21-42; FIG. 4 legend): 27 µM
- peptide concentration above which reactivity of the line started to decline (TCL LZ-anti-pp 21-42; autologous APC, FIG. 4): above 3 μM
- peptide concentration for complete suppression of TCL reactivity (TCL LZ-anti-pp 21-42; autologous APC, FIG. 4): 27 µM
- stimulation of TCL anti-pp 21-42 by overlapping 14-mer peptides (TCL LZ-anti-pp 21-42; autologous APCs, FIG. 3): stimulated strongly
- TCL-ZL response to pp 22-35 (TCL LZ-anti-pp 21-42; pp 22-35): 17×10^3 cpm

Substance: K G N N D E S N I S F K E K D (KGNNDESNISFKEKD) [NDA4-derived peptide, irrelevant synthetic peptide corresponding to the N-terminus of the NDA4 molecule, reference compound]
- viability of T cells grown with peptide alone [4]: unaffected
- TCL-ZL response to pp 22-35 in the presence of irrelevant peptide (TCL LZ-anti-pp 21-42; pp 22-35 at plus NDA4-derived peptide at 30-50 μM): 15-17×10^3 cpm

Substance: GDTRPRFLWQLKFECHFFNG (GDTRPRFLWQLKFECHFFNG) [pp 1-20, residues 1-20 of Drβ1*0101 chain]
- blastogenesis after in vitro immunization of PBMC [1]: elicited blastogenesis
- reactivity of TCL LZ-anti-pp 1-20 (TCL LZ-anti-pp 1-20; autologous APCs, various concentrations, FIG. 1): stimulated strongly
- HLA-DR restriction of peptide recognition by TCL anti-pp 1-20 (TCL LZ-anti-pp 1-20; autologous and allogeneic APCs, FIG. 2A): only when presented by APCs carrying the Drβ1*1101 allele
